Measurements published in PubChem BioAssay (NCI).
Several values for one entry are separate records, joined by “and”; a condition that tells them apart may be missing. Identical values can stand only once.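 96-well plates; 48 h exposure; 5 concentrations. Endpoints by linear interpolation between flanking doses. Not reached: highest tested concentration assigned. GI50 marks 50% less growth. TGI is the concentration that stops growth completely.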

What was measured:
Test in all cases: NCI tumour cell line growth inhibition, 48 h
OVCAR-8 ovarian = tested on: OVCAR-8 ovarian
MDA-MB-435 = tested on: MDA-MB-435
MCF7 breast = tested on: MCF7 breast
SR leukemia = tested on: SR leukemia
MDA-MB-231 breast = tested on: MDA-MB-231 breast
ACHN renal = tested on: ACHN renal
NCI-H226 lung = tested on: NCI-H226 lung
SK-MEL-28 melanoma = tested on: SK-MEL-28 melanoma
EKVX NSCLC = tested on: EKVX NSCLC
COLO 205 colon = tested on: COLO 205 colon
MOLT-4 leukemia = tested on: MOLT-4 leukemia
UO-31 renal = tested on: UO-31 renal
HCC-2998 colon = tested on: HCC-2998 colon
KM12 colon = tested on: KM12 colon
M14 melanoma = tested on: M14 melanoma
NCI-H460 lung = tested on: NCI-H460 lung

SMILES | TGI (OVCAR-8 ovarian) | TGI (MDA-MB-435) | TGI (MCF7 breast) | TGI (SR leukemia) | TGI (MDA-MB-231 breast) | TGI (ACHN renal) | TGI (NCI-H226 lung) | TGI (SK-MEL-28 melanoma) | TGI (EKVX NSCLC) | TGI (COLO 205 colon) | TGI (MOLT-4 leukemia) | TGI (UO-31 renal) | TGI (HCC-2998 colon) | TGI (KM12 colon) | TGI (M14 melanoma) | TGI (NCI-H460 lung) | GI50 (OVCAR-8 ovarian) | GI50 (MDA-MB-231 breast) | GI50 (NCI-H226 lung) | GI50 (EKVX NSCLC)
CSc1ncc2c(C#N)c3ccccn3c(=O)c2n1 | > 100 µM | > 100 µM | > 100 µM | > 100 µM | > 100 µM | > 100 µM | > 100 µM | > 100 µM | > 100 µM | > 100 µM | > 100 µM | > 100 µM | > 100 µM | > 100 µM | > 100 µM | > 100 µM |  |  |  | 
COC(=O)CCN1CCN(CCO)CC1C (configuration not stated) | > 10 µM | > 10 µM | > 10 µM | > 10 µM | > 10 µM | > 10 µM | > 10 µM | > 10 µM | > 10 µM | > 10 µM | > 10 µM | > 10 µM | > 10 µM | > 10 µM | > 10 µM | > 10 µM |  |  |  | 
CC(=O)OCC1=C2C(OC(=O)C(C)C)CC3(COC(C)=O)OC3/C=C\C3(C)OC3C2OC1=O (configuration not stated) | > 100 µM | > 100 µM | > 100 µM | > 100 µM | > 100 µM | > 100 µM | > 100 µM | > 100 µM | > 100 µM | > 100 µM | > 100 µM | > 100 µM | > 100 µM | > 100 µM | > 100 µM | > 100 µM |  |  |  | 
Cc1ccc(C)c(NC(=O)/C(=N\N)C(c2cnc3ccc([N+](=O)[O-])cc3n2)[N+](=O)[O-])c1 (configuration not stated) | > 100 µM | > 100 µM | > 100 µM | > 100 µM | > 100 µM | 40.1 µM | > 100 µM | > 100 µM | > 100 µM |  | > 100 µM | > 100 µM | > 100 µM | > 100 µM | > 100 µM | > 100 µM |  |  |  | 
c1csc(-c2sc(-c3ccsc3)cc2Cc2ccsc2)c1 | > 10 µM | > 10 µM | > 10 µM | > 10 µM | > 10 µM |  |  | > 10 µM | > 10 µM | > 10 µM | > 10 µM |  | > 10 µM | > 10 µM | > 10 µM |  |  |  |  | 
Clc1ccc(/C=C/c2nc(-c3ccc(Cl)cc3)cn3c2nc2ccccc23)cc1 |  | > 100 µM | > 100 µM | > 100 µM | > 100 µM | > 100 µM | > 100 µM | > 100 µM | > 100 µM | > 100 µM | > 100 µM | > 100 µM | > 100 µM | > 100 µM | > 100 µM | > 100 µM |  |  |  | 
Clc1cc2nnn(C3CCCCO3)c2cc1Cl (configuration not stated) | > 100 µM | > 100 µM | > 100 µM | > 100 µM | > 100 µM | > 100 µM | > 100 µM |  | 79.4 µM | > 100 µM | > 100 µM | > 100 µM | > 100 µM | > 100 µM | > 100 µM | > 100 µM |  |  |  | 
c1ccc(CNCCCNCCCCNCCCNCc2ccccc2)cc1 | 27 µM | 8.91 µM | 14.4 µM | 25.6 µM | 22.1 µM | 21.4 µM | 17.2 µM | 26.7 µM | 23.1 µM |  | 2.74 µM | 25.7 µM | 15.2 µM | 21 µM | 16.1 µM | 19.1 µM |  |  |  | 
CC(=O)N1N=C(c2ccccc2Nc2ccccc2C2=NN(C(C)=O)C(c3ccccc3)O2)OC1c1ccccc1 (configuration not stated) | > 100 µM | > 100 µM | > 100 µM | > 100 µM | > 100 µM | > 100 µM | > 100 µM | > 100 µM | > 100 µM | > 100 µM | > 100 µM | > 100 µM | > 100 µM |  | > 100 µM | > 100 µM |  |  |  | 
N=c1oc2ccc([N+](=O)[O-])cc2cc1C(=O)Nc1ccccn1 | > 100 µM | > 100 µM | > 100 µM | > 100 µM | 59.9 µM | > 100 µM | > 100 µM | > 100 µM | > 100 µM | > 100 µM | > 100 µM |  | > 100 µM | > 100 µM | > 100 µM | > 100 µM |  |  |  | 
Cc1cc(CN(Cc2ccccc2)Cc2nc3ccccc3[nH]2)c(O)c(CN(Cc2nc3ccccc3[nH]2)Cc2nc3ccccc3[nH]2)c1 | > 100 µM | 36.1 µM | 8.87 µM | > 25.3 µM | > 71.4 µM |  | > 50.9 µM | > 100 µM | 99.1 µM | > 55.1 µM | 42.1 µM | 36.7 µM | 38 µM | 30.5 µM | 26.6 µM | 28 µM |  |  |  | 
O=[N+]([O-])c1ccc(OP(=O)(O)OCC2OC(CP(=O)(O)O)C(O)C2O)cc1 (configuration not stated) | > 100 µM | > 100 µM | > 100 µM | > 100 µM | > 100 µM | > 100 µM |  | > 100 µM | > 100 µM | > 100 µM | > 100 µM | > 100 µM | > 100 µM | > 100 µM | > 100 µM | > 100 µM |  |  |  | 
CC(C)CC(NC=O)C(=O)NC(Cc1ccccc1)NC(=O)CNC(=O)C(C)NC(=O)OC(C)(C)C (configuration not stated) | > 100 µM | > 100 µM | > 100 µM | > 100 µM | > 100 µM | > 100 µM | > 100 µM | > 100 µM | > 100 µM | > 100 µM | > 100 µM | > 100 µM |  | > 100 µM | > 100 µM | > 100 µM |  |  |  | 
CCCC1=NC(C(F)(F)F)(C(F)(F)F)N=C(N2CCOCC2)O1 | > 100 µM | > 100 µM | > 100 µM | > 100 µM | > 100 µM |  | > 100 µM | > 100 µM | > 100 µM | > 100 µM | > 100 µM | > 100 µM | > 100 µM | > 100 µM | > 100 µM |  |  |  |  | 
COc1cc(CC(C)N[C@@H](C)c2ccccc2)cc(OC)c1 (some centres not stated) | 25.7 µM and > 100 µM | 19.6 µM and > 100 µM | 20.1 µM and > 100 µM | 15.2 µM and > 100 µM | 27.2 µM and > 100 µM | 21.1 µM and > 100 µM | 38.2 µM and > 100 µM | 11.9 µM and > 100 µM | 26.4 µM and > 100 µM |  | 17.4 µM and > 100 µM | 13.9 µM and > 100 µM |  | > 100 µM | 21.9 µM and > 100 µM | 12.1 µM and > 100 µM | 11.8 µM and > 100 µM | 12.8 µM and > 100 µM | 15.1 µM and > 100 µM | 12.2 µM and > 100 µM
